Results from US9399626B2, “2-thiopyrimidinones” (Pfizer Inc., priority 2011, dated 2016).

Target: T1, MPO (purified from human polynuclear leukocytes) (Homo sapiens, UniProt P05164)
T1 construct: purified from human polynuclear leukocytes; purchased Calbiochem/EMD Biosciences; host or cells: human polynuclear leukocytes (natural source)
Assay: MPO Amplex Red Activity Assay
Assay type: biochemical
Conditions: Table 1, 2 μM H2O2, pH 7.4
Outline: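 Human leukocyte MPO […] oxidises 30 μM Amplex Red with 2 μM H2O2 in 50 mM NaPi pH 7.4, 150 mM NaCl, 1 mM DTPA, 2% DMSO. Resorufin fluorescence (ex 530/em 580 nm) read every 20 s, minus catalase background. kobs from the first 600 s, corrected for auto-inactivation, fit versus [I] for kinact/KI.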

T1 sequence (P05164 279-745 limits assumed): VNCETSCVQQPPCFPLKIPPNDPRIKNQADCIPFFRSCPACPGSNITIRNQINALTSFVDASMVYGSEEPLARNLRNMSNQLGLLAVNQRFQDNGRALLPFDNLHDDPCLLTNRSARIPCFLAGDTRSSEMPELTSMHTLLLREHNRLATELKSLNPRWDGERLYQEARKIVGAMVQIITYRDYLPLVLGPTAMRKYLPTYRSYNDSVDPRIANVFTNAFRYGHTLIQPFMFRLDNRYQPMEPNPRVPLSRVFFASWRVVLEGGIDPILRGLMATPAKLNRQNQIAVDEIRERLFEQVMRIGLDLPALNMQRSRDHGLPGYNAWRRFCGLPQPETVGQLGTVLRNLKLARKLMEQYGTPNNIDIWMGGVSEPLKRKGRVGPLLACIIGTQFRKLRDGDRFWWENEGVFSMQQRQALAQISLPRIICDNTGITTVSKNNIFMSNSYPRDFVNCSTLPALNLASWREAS
T1 sequence (P05164 165-273 limits assumed): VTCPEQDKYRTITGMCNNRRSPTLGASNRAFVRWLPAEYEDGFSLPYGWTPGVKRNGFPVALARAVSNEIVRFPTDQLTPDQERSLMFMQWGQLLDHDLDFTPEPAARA

SMILES | MPO kinact/Ki
COCCn1c(-c2ccc3c(c2)CCO3)cc(=O)[nH]c1=S [Example 308, 6-(2,3-dihydro-1-benzofuran-5-yl)-1-(2-methoxyethyl)-2-thioxo-2,3-dihydropyrimidin-4(1H)-one] | 5340 1/s per M
COCCn1c(-c2ccc3c(c2)OCO3)cc(=O)[nH]c1=S [Example 309, 6-(1,3-benzodioxol-5-yl)-1-(2-methoxyethyl)-2-thioxo-2,3-dihydropyrimidin-4(1H)-one] | 3160 1/s per M
CCOc1ccc(-c2cc(=O)[nH]c(=S)n2CCOC)cc1 [Example 311, 6-(4-ethoxyphenyl)-1-(2-methoxyethyl)-2-thioxo-2,3-dihydropyrimidin-4(1H)-one] | 2080 1/s per M
CCOc1ccc(-c2cc(=O)[nH]c(=S)n2CCOC)cn1 [Example 313, 6-(6-ethoxypyridin-3-yl)-1-(2-methoxyethyl)-2-thioxo-2,3-dihydropyrimidin-4(1H)-one] | 973 1/s per M
COCCn1c(-c2cnc(N(C)C)nc2)cc(=O)[nH]c1=S [Example 314, 2′-(dimethylamino)-3-(2-methoxyethyl)-2-thioxo-2,3-dihydro-4,5′-bipyrimidin-6(1H)-one] | 429 1/s per M
COCCn1c(-c2cnc3ccccc3c2)cc(=O)[nH]c1=S [Example 320, 1-(2-methoxyethyl)-6-quinolin-3-yl-2-thioxo-2,3-dihydropyrimidin-4(1H)-one] | 2390 1/s per M
COCCn1c(-c2cccc3cccnc23)cc(=O)[nH]c1=S [Example 322, 1-(2-methoxyethyl)-6-quinolin-8-yl-2-thioxo-2,3-dihydropyrimidin-4(1H)-one] | 2800 1/s per M
COCCn1c(-c2cc3ccccc3s2)cc(=O)[nH]c1=S [Example 323, 6-(1-benzothien-2-yl)-1-(2-methoxyethyl)-2-thioxo-2,3-dihydropyrimidin-4(1H)-one] | 10200 1/s per M
COCCn1c(-c2csc3ccccc23)cc(=O)[nH]c1=S [Example 324, 6-(1-benzothien-3-yl)-1-(2-methoxyethyl)-2-thioxo-2,3-dihydropyrimidin-4(1H)-one] | 11300 1/s per M
CNC(=O)c1cccc(-c2cc(=O)[nH]c(=S)n2CCOC)c1 [Example 325, 3-[3-(2-methoxyethyl)-6-oxo-2-thieno-1,2,3,6-tetrahydropyrimidin-4-yl]-N-methylbenzamide] | 1160 1/s per M
COCCn1c(-c2ccc3c(c2)OCCO3)cc(=O)[nH]c1=S [Example 326, 6-(2,3-dihydro-1,4-benzodioxin-6-yl)-1-(2-methoxyethyl)-2-thioxo-2,3-dihydropyrimidin-4(1H)-one] | 7480 1/s per M
COCCn1c(-c2ccc(OC(C)C)cc2)cc(=O)[nH]c1=S [Example 327, 6-(4-isopropoxyphenyl)-1-(2-methoxyethyl)-2-thioxo-2,3-dihydropyrimidin-4(1H)-one] | 1880 1/s per M
COCCn1c(-c2ccc(C(=O)N(C)C)cc2)cc(=O)[nH]c1=S [Example 336, 4-[3-(2-methoxyethyl)-6-oxo-2-thioxo-1,2,3,6-tetrahydropyrimidin-4-yl]-N,N-dimethylbenzamide] | 589 1/s per M
COCCn1c(-c2cccc(OC(F)(F)F)c2)cc(=O)[nH]c1=S [Example 340] | 1450 1/s per M
COCCn1c(-c2cc3c(cc2OC)CCCC3)cc(=O)[nH]c1=S [Example 341, 1-(2-methoxyethyl)-6-(3-methoxy-5,6,7,8-tetrahydronaphthalen-2-yl)-2-thioxo-2,3-dihydropyrimidin-4(1H)-one] | 14300 1/s per M
COCCn1c(-c2cc(C(C)C)c(F)cc2OC)cc(=O)[nH]c1=S [Example 344, 6-(4-fluoro-5-isopropyl-2-methoxyphenyl)-1-(2-methoxyethyl)-2-thioxo-2,3-dihydropyrimidin-4(1H)-one] | 8480 1/s per M
COCCn1c(-c2cc(F)ccc2OC(F)(F)F)cc(=O)[nH]c1=S [Example 346] | 5890 1/s per M
COCCn1c(-c2ccc(S(=O)(=O)N(C)C)cc2)cc(=O)[nH]c1=S [Example 347, 4-[3-(2-methoxyethyl)-6-oxo-2-thioxo-1,2,3,6-tetrahydropyrimidin-4-yl]-N,N-dimethylbenzenesulfonamide] | 378 1/s per M

Further lines, results first:

MPO kinact/Ki | SMILES
3110 1/s per M | CCOc1ccccc1-c1cc(=O)[nH]c(=S)n1CCOC [Example 310, 6-(2-ethoxyphenyl)-1-(2-methoxyethyl)-2-thioxo-2,3-dihydropyrimidin-4(1H)-one]
17100 1/s per M | COCCn1c(-c2cc(C)ccc2OC)cc(=O)[nH]c1=S [Example 312, 1-(2-methoxyethyl)-6-(2-methoxy-5-methylphenyl)-2-thioxo-2,3-dihydropyrimidin-4(1H)-one]
1420 1/s per M | COCCn1c(-c2ccc(OC)c(F)c2)cc(=O)[nH]c1=S [Example 315, 6-(3-fluoro-4-methoxyphenyl)-1-(2-methoxyethyl)-2-thioxo-2,3-dihydropyrimidin-4(1H)-one]
3060 1/s per M | COCCn1c(-c2ccc(OC)cc2F)cc(=O)[nH]c1=S [Example 316, 6-(2-fluoro-4-methoxyphenyl)-1-(2-methoxyethyl)-2-thioxo-2,3-dihydropyrimidin-4(1H)-one]
7380 1/s per M | COCCn1c(-c2cc(F)ccc2OC)cc(=O)[nH]c1=S [Example 317, 6-(5-fluoro-2-methoxyphenyl)-1-(2-methoxyethyl)-2-thioxo-2,3-dihydropyrimidin-4(1H)-one]
5240 1/s per M | COCCn1c(-c2ccc(F)cc2OC)cc(=O)[nH]c1=S [Example 318, 6-(4-fluoro-2-methoxyphenyl)-1-(2-methoxyethyl)-2-thioxo-2,3-dihydropyrimidin-4(1H)-one]
7810 1/s per M | COCCn1c(-c2cccc3ccccc23)cc(=O)[nH]c1=S [Example 319, 1-(2-methoxyethyl)-6-(1-naphthyl)-2-thioxo-2,3-dihydropyrimidin-4(1H)-one]
2480 1/s per M | COCCn1c(-c2cccc3ncccc23)cc(=O)[nH]c1=S [Example 321, 1-(2-methoxyethyl)-6-quinolin-5-yl-2-thioxo-2,3-dihydropyrimidin-4(1H)-one]
4370 1/s per M | COCCn1c(-c2ccccc2OC(C)C)cc(=O)[nH]c1=S [Example 328, 6-(2-isopropoxyphenyl)-1-(2-methoxyethyl)-2-thioxo-2,3-dihydropyrimidin-4(1H)-one]
963 1/s per M | COCCn1c(-c2cccc(OC)c2OC)cc(=O)[nH]c1=S [Example 329, 6-(2,3-dimethoxyphenyl)-1-(2-methoxyethyl)-2-thioxo-2,3-dihydropyrimidin-4(1H)-one]
5210 1/s per M | COCCn1c(-c2cc(OC)cc(OC)c2)cc(=O)[nH]c1=S [Example 330, 6-(3,5-dimethoxyphenyl)-1-(2-methoxyethyl)-2-thioxo-2,3-dihydropyrimidin-4(1H)-one]
6330 1/s per M | COCCn1c(-c2ccc(OC)c(OC)c2)cc(=O)[nH]c1=S [Example 331, 6-(3,4-dimethoxyphenyl)-1-(2-methoxyethyl)-2-thioxo-2,3-dihydropyrimidin-4(1H)-one]
3270 1/s per M | COCCn1c(-c2ccc(OC)nc2OC)cc(=O)[nH]c1=S [Example 332, 6-(2,6-dimethoxypyridin-3-yl)-1-(2-methoxyethyl)-2-thioxo-2,3-dihydropyrimidin-4(1H)-one]
6100 1/s per M | COCCn1c(-c2cc(Cl)ccc2OC)cc(=O)[nH]c1=S [Example 333, 6-(5-chloro-2-methoxyphenyl)-1-(2-methoxyethyl)-2-thioxo-2,3-dihydropyrimidin-4(1H)-one]
6840 1/s per M | COCCn1c(-c2ccc(OC)cc2Cl)cc(=O)[nH]c1=S [Example 334, 6-(2-chloro-4-methoxyphenyl)-1-(2-methoxyethyl)-2-thioxo-2,3-dihydropyrimidin-4(1H)-one]
9820 1/s per M | COCCn1c(-c2ccc(Cl)cc2OC)cc(=O)[nH]c1=S [Example 335, 6-(4-chloro-2-methoxyphenyl) 1-(2-methoxyethyl)-2-thioxo-2,3-dihydropyrimidin-4(1H)-one]
13200 1/s per M | COCCn1c(-c2cc(C(C)C)ccc2OC)cc(=O)[nH]c1=S [Example 337, 6-(5-isopropyl-2-methoxyphenyl)-1-(2-methoxyethyl)-2-thioxo-2,3-dihydropyrimidin-4(1H)-one]
1280 1/s per M | COCCn1c(-c2cnc(N(C)C)cc2OC)cc(=O)[nH]c1=S [Example 338, 6-[6-(dimethylamino)-4-methoxypyridin-3-yl]-1-(2-methoxyethyl)-2-thioxo-2,3-dihydropyrimidin-4(1H)-one]
10400 1/s per M | COCCn1c(-c2c(OC)ccc3ccccc23)cc(=O)[nH]c1=S [Example 339, 1-(2-methoxyethyl)-6-(2-methoxy-1-naphthyl)-2-thioxo-2,3-dihydropyrimidin-4(1H)-one]
817 1/s per M | COCCn1c(-c2cc(OC)c(OC)c(OC)c2)cc(=O)[nH]c1=S [Example 342, 1-(2-methoxyethyl)-2-thioxo-6-(3,4,5-trimethoxyphenyl)-2,3-dihydropyrimidin-4(1H)-one]
3570 1/s per M | COCCn1c(-c2ccc(OC)c(OC)c2OC)cc(=O)[nH]c1=S [Example 343, 1-(2-methoxyethyl)-2-thioxo-6-(2,3,4-trimethoxyphenyl)-2,3-dihydropyrimidin-4(1H)-one]
946 1/s per M | COCCn1c(-c2ccc(OC)c3nc(C)ccc23)cc(=O)[nH]c1=S [Example 345, 1-(2-methoxyethyl)-6-(8-methoxy-2-methylquinolin-5-yl)-2-thioxo-2,3-dihydropyrimidin-4(1H)-one]
